Assay results as given in US8088806B2 (Achillion Pharmaceuticals, Inc., priority 2005, dated 2012).

What follows are molecules tested on HCV replicon (assay: Replicon based assay of HCV replication inhibition (NPT ELISA)). Conditions: Hepatitis C virus, Huh-7, 72 h, Table I; Huh-7 HCV replicon-containing cells, three days; read-out: Activity.
Assay type: cell-based, Hepatitis C virus
Outline: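 Huh-7 cells carrying a bicistronic HCV replicon (neo, EMCV-IRES-driven NS3–NS5B) treated overnight after seeding with usually 6 concentrations, 10 to 0.03 micromolar, for three days at 37° C without G418. Replication read as NPT level by captured ELISA; matched-DMSO wells and interferon alpha as controls.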
In the case of COc1ccc(-c2csc(Nc3ccc4c(c3)OCO4)n2)cc1F [compound 169, N-(benzo[d][1,3]dioxol-5-yl)-4-(3-fluoro-4-methoxyphenyl)thiazol-2-amine], the EC50 is reported as greater than 10000 nM.
Cc1ccnc(Nc2nc(-c3c(C)nc4sccn34)cs2)c1 [compound 170, 4-methyl-N-(4-(6-methylimidazo[2,1-b]thiazol-5-yl)thiazol-2-yl)pyridin-2-amine] showed an EC50 greater than 10000 nM.
In the case of CCCCCOc1ccc(Nc2nc(CN3CCOCC3)cs2)cc1C(F)(F)F [compound 171, N-(3-(trifluoromethyl)-4-(pentyloxy)phenyl)-4-(morpholinomethyl)thiazol-2-amine], the EC50 is reported as less than 1000 nM.
CCCCCOc1ccc(Nc2nc(CN(C)C)cs2)cc1C(F)(F)F [compound 172, 4-((dimethylamino)methyl)-N-(3-(trifluoromethyl)-4-(pentyloxy)phenyl)thiazol-2-amine] gave an EC50 of less than 1000 nM.
With CCCCCOc1ccc(N(C(C)=O)c2nc(C(=O)Nc3cccnc3)cs2)cc1C(F)(F)F [compound 173, 2-(N-(3-(trifluoromethyl)-4-(pentyloxy)phenyl)acetamido)-N-(pyridin-3-yl)thiazole-4-carboxamide] the EC50 was greater than 10000 nM.
Molecule CCCCCOc1ccc(Nc2nc(-c3cccc(F)c3)cs2)cc1F [compound 174, N-(3-fluoro-4-(pentyloxy)phenyl)-4-(3-fluorophenyl)thiazol-2-amine] has an EC50 of less than 1000 nM.
CCCCCOc1ccc(Nc2nc(-c3cc(-c4ccc(Cl)c(Cl)c4)no3)cs2)cc1F [compound 175, 4-(3-(3,4-dichlorophenyl)isoxazol-5-yl)-N-(3-fluoro-4-(pentyloxy)phenyl)thiazol-2-amine] showed an EC50 greater than 10000 nM.
CCCCCOc1ccc(Nc2nc(-c3cc(C(=O)OCC)no3)cs2)cc1F [compound 176, ethyl 5-(2-(3-fluoro-4-(pentyloxy)phenylamino)thiazol-4-yl)isoxazole-3-carboxylate] was tested, and the EC50 was greater than 10000 nM.
CCCCCOc1ccc(Nc2nc(-c3ccccc3Cl)cs2)cc1F [compound 177, 4-(2-chlorophenyl)-N-(3-fluoro-4-(pentyloxy)phenyl)thiazol-2-amine] showed an EC50 of less than 1000 nM.
For CCCCCOc1ccc(Nc2nc(-c3cccc(F)c3)cs2)cn1 [compound 178, N-(4-(3-fluorophenyl)thiazol-2-yl)-6-(pentyloxy)pyridin-3-amine], the EC50 was less than 1000 nM.
For CCCCCOc1ccc(Nc2nc(-c3cc(-c4ccc(Cl)c(Cl)c4)no3)cs2)cn1 [compound 179, N-(4-(3-(3,4-dichlorophenyi)isoxazol-5-yl)thiazol-2-yl)-6-(pentyloxy)pyridin-3-amine], the EC50 was greater than 10000 nM.
In the case of CCCCCOc1ccc(Nc2nc(-c3cc(C(=O)OCC)no3)cs2)cn1 [compound 180, ethyl 5-(2-(6-(pentyloxy)pyridin-3-ylamino)thiazol-4-yl)isoxazole-3-carboxylate], the EC50 is reported as greater than 10000 nM.
CCCCCOc1ccc(Nc2nc(-c3ccccc3Cl)cs2)cn1 [compound 181, N-(4-(2-chlorophenyl)thiazol-2-yl)-6-(pentyloxy)pyridin-3-amine] showed an EC50 of less than 1000 nM.
Molecule CCCCCc1ccc(Nc2nc(-c3ccc(CC(=O)O)cc3)c(C)s2)cc1 [compound 182, 2-(4-(2-(4-pentylphenylamino)-5-methylthiazol-4-yl)phenyl)acetic acid] has an EC50 of less than 1000 nM.
Work on CCCCCc1ccc(Nc2nc(-c3cccc(F)c3)cs2)cc1 [compound 183, 4-(3-fluorophenyl)-N-(4-pentylphenyl)thiazol-2-amine] yielded an EC50 of less than 1000 nM.
In the case of CCCCCc1ccc(Nc2nc(-c3cc(-c4ccc(Cl)c(Cl)c4)no3)cs2)cc1 [compound 184, 4-(3-(3,4-dichlorophenyl)isoxazol-5-yl)-N-(4-pentylphenyl)thiazol-2-amine], the EC50 is reported as greater than 10000 nM.
Work on CCCCCc1ccc(Nc2nc(-c3cc(C(=O)OCC)no3)cs2)cc1 [compound 185, ethyl 5-(2-(4-pentylphenylamino)thiazol-4-yl)isoxazole-3-carboxylate] yielded an EC50 greater than 10000 nM.
In the case of CCCCCc1ccc(Nc2nc(-c3ccccc3Cl)cs2)cc1 [compound 186, 4-(2-chlorophenyl)-N-(4-pentylphenyl)thiazol-2-amine], the EC50 is reported as greater than 10000 nM.
Cc1sc(Nc2cccc(Oc3ccccc3)c2)nc1-c1ccc(CC(=O)O)cc1 [compound 187, 2-(4-(2-(3-phenoxyphenylamino)-5-methylthiazol-4-yl)phenyl)acetic acid] showed an EC50 of less than 1000 nM.
Fc1cccc(-c2csc(Nc3cccc(Oc4ccccc4)c3)n2)c1 [compound 188, 4-(3-fluorophenyl)-N-(3-phenoxyphenyl)thiazol-2-amine] gave an EC50 of less than 1000 nM.
Clc1ccc(-c2cc(-c3csc(Nc4cccc(Oc5ccccc5)c4)n3)on2)cc1Cl [compound 189, 4-(3-(3,4-dichlorophenyl)isoxazol-5-yl)-N-(3-phenoxyphenyl)thiazol-2-amine] was tested, and the EC50 was greater than 10000 nM.
In the case of CCOC(=O)c1cc(-c2csc(Nc3cccc(Oc4ccccc4)c3)n2)on1 [compound 190, ethyl S-(2-(3-phenoxyphenylamino)thiazol-4-yl)isoxazole-3-carboxylate], the EC50 is reported as greater than 10000 nM.
With Clc1ccccc1-c1csc(Nc2cccc(Oc3ccccc3)c2)n1 [compound 191, 4-(2-chlorophenyl)-N-(3-phenoxyphenyl)thiazol-2-amine] the EC50 was less than 1000 nM.
Work on Cc1sc(Nc2cccc(OCc3ccccc3)c2)nc1-c1ccc(CC(=O)O)cc1 [compound 192, 2-(4-(2-(3-(benzyloxy)phenylamino)-5-methylthiazol-4-yl)phenyl)acetic acid] yielded an EC50 of less than 1000 nM.
Fc1cccc(-c2csc(Nc3cccc(OCc4ccccc4)c3)n2)c1 [compound 193, N-(3-(benzyloxy)phenyl)-4-(3-fluorophenyl)thiazol-2-amine] gave an EC50 of less than 1000 nM.
Clc1ccc(-c2cc(-c3csc(Nc4cccc(OCc5ccccc5)c4)n3)on2)cc1Cl [compound 194, N-(3-(benzyloxy)phenyl)-4-(3-(3,4-dichlorophenyl)isoxazol-5-yl)thiazol-2-amine] was tested, and the EC50 was greater than 10000 nM.
In the case of CCOC(=O)c1cc(-c2csc(Nc3cccc(OCc4ccccc4)c3)n2)on1 [compound 195, ethyl 5-(2-(3-(benzyloxy)phenylamino)thiazol-4-yl)isoxazole-3-carboxylate], the EC50 is reported as greater than 10000 nM.
In the case of Clc1ccccc1-c1csc(Nc2cccc(OCc3ccccc3)c2)n1 [compound 196, N-(3-(benzyloxy)phenyl)-4-(2-chlorophenyl)thiazol-2-amine], the EC50 is reported as less than 1000 nM.
Work on CCCCCOc1ccc(Nc2nc(-c3ccc(CC(=O)O)cc3)c(C)s2)cc1C(F)(F)F [compound 197, 2-(4-(2-(3-(trifluoromethyl)-4-(pentloxy)phenylamino)-5-methylthiazol-4-yl)phenyl)acetic acid] yielded an EC50 of less than 1000 nM.
With CCCCCOc1ccc(Nc2nc(-c3cccc(F)c3)cs2)cc1C(F)(F)F [compound 198, N-(3-(trifluoromethyl)-4-(pentyloxy)phenyl)-4-(3-fluorophenyl)thiazol-2-amine] the EC50 was less than 1000 nM.
With CCCCCOc1ccc(Nc2nc(-c3ccc4c(c3)NC(=O)CO4)cs2)cc1C(F)(F)F [compound 199, 6-(2-(3-(trifluoromethyl)-4-(pentyloxy)phenylamino)thiazol-4-yl)-2H-benzo[b][1,4]oxazin-3(4H)-one] the EC50 was less than 1000 nM.
CCCCCOc1ccc(Nc2nc(-c3ccc(CC(=O)O)s3)cs2)cc1C(F)(F)F [compound 200, 2-(5-(2-(3-(trifluoromethyl)-4-(pentyloxy)phenylamino)thiazol-4-yl)thiophen-2-yl)acetic acid] showed an EC50 of less than 1000 nM.
CCCCCOc1ccc(Nc2nc(-c3cc(-c4ccc(Cl)c(Cl)c4)no3)cs2)cc1C(F)(F)F [compound 201, 4-(3-(3,4-dichlorophenyl)isoxazol-5-yl)-N-(3-(trifluoromethyl)-4-(pentyloxy)phenyl)thiazol-2-amine] gave an EC50 greater than 10000 nM.
CCCCCOc1ccc(Nc2nc(-c3cc(C(=O)OCC)no3)cs2)cc1C(F)(F)F [compound 202, ethyl 5-(2-(3-(trifluoromethyl)-4-(pentyloxy)phenylamino)thiazol-4-yl)isoxazole-3-carboxylate] showed an EC50 of less than 1000 nM.
CCCCCOc1ccc(Nc2nc(-c3ccccc3Cl)cs2)cc1C(F)(F)F [compound 203, 4-(2-chlorophenyl)-N-(3-(trifluoromethyl)-4-(pentyloxy)phenyl)thiazol-2-amine] gave an EC50 of less than 1000 nM.
In the case of CCCCCOc1ccc(Nc2nc(C(=O)CBr)cs2)cc1C(F)(F)F [compound 204, 1-(2-(3-(trifluoromethyl)-4-(pentyloxy)phenylamino)thiazol-4-yl)-2-bromoethanone], the EC50 is reported as less than 1000 nM.
Work on COc1cccc2sc(Nc3nc(-c4ccncc4)cs3)nc12 [compound 205, 4-methoxy-N-(4-(pyridin-4-yl)thiazol-2-yl)benzo[d]thiazol-2-amine] yielded an EC50 of less than 1000 nM.
Fc1ccc2nc(Nc3nc(-c4cccnc4)cs3)sc2c1 [compound 206, 6-fluoro-N-(4-(pyridin-3-yl)thiazol-2-yl)benzo[d]thiazol-2-amine] was tested, and the EC50 was 1000 to 10000 nM.
Work on COc1cccc2sc(Nc3nc(-c4cccnc4)cs3)nc12 [compound 207, 4-methoxy-N-(4-(pyridin-3-yl)thiazol-2-yl)benzo[d]thiazol-2-amine] yielded an EC50 of 1000 to 10000 nM.
For CCCCCOc1ccc(Nc2nc(N)cs2)cc1C(F)(F)F [compound 208, N2-(3-(trifluoromethyl)-4-(pentyloxy)phenyl)thiazole-2,4-diamine], the EC50 was 1000 to 10000 nM.
In the case of CCCCCOc1ccc(Nc2nc(-c3ccc(C(=O)OC)cn3)cs2)cc1C(F)(F)F [compound 211, methyl 6-(2-(3-(trifluoromethyl)-4-(pentyloxy)phenylamino)thiazol-4-yl)pyridine-3-carboxylate], the EC50 is reported as less than 1000 nM.
CCCCCOc1ccc(Nc2nc(-c3ccc(C(=O)O)cn3)cs2)cc1C(F)(F)F [compound 213, 6-(2-(3-(trifluoromethyl)-4-(pentyloxy)phenylamino)thiazol-4-yl)pyridine-3-carboxylic acid] was tested, and the EC50 was less than 1000 nM.
Molecule FC(F)Oc1ccc(-c2csc(Nc3cccnc3)n2)cc1 [compound 214, N-(4-(4-(difluoromethoxy)phenyl)thiazol-2-yl)pyridin-3-amine] has an EC50 greater than 10000 nM.
